According to the NIST ThermoML archive (doi:10.1021/acs.jced.7b01091):
± gives the expanded uncertainty stated by the source.

Details: Liquid; for vapor or sublimation pressure: Closed cell (Static) method; for mass density: 101.33 kPa, Vibrating tube method

C1CCOCC1 [tetrahydropyran]
Details	mass density [kg/m3]	vapor or sublimation pressure [kPa]
275.59 K	–	2.85 ± 0.06
285.53 K	–	4.91 ± 0.1
295.42 K	–	8.07 ± 0.16
298.15 K	879.16 ± 1.8	9.25 ± 0.19
305.37 K	–	12.85 ± 0.26
315.36 K	–	19.9 ± 0.4
325.65 K	–	29.99 ± 0.6
335.6 K	–	43.81 ± 0.88
345.59 K	–	61.17 ± 1.2
355.49 K	–	84.29 ± 1.7

ClCCCl [1,2-dichloroethane]
Details	mass density [kg/m3]	vapor or sublimation pressure [kPa]
284.87 K	–	5.38 ± 0.11
294.83 K	–	8.97 ± 0.18
294.84 K	–	8.96 ± 0.18
298.15 K	1245.68 ± 2.5	10.53 ± 0.21
304.82 K	–	14.34 ± 0.29
314.81 K	–	22.19 ± 0.45
314.83 K	–	22.18 ± 0.45
324.83 K	–	33.27 ± 0.67
334.82 K	–	48.47 ± 0.97
344.81 K	–	67.97 ± 1.4
354.89 K	–	94.96 ± 1.9

C1COCO1 [1,3-dioxolane]
Details	mass density [kg/m3]	vapor or sublimation pressure [kPa]
275 K	–	3.86 ± 0.08
284.94 K	–	6.74 ± 0.14
294.82 K	–	11.33 ± 0.23
298.15 K	1058.76 ± 2.1	13.31 ± 0.27
304.79 K	–	18.26 ± 0.37
314.76 K	–	28.28 ± 0.57
324.9 K	–	43.07 ± 0.87
334.85 K	–	62.99 ± 1.3
344.82 K	–	89.85 ± 1.8
350.77 K	–	109.39 ± 2.2

C1COCCO1 [1,4-dioxane]
Details	mass density [kg/m3]	vapor or sublimation pressure [kPa]
284.59 K	–	2.23 ± 0.05
294.82 K	–	3.92 ± 0.08
298.15 K	1027.87 ± 2.1	4.68 ± 0.09
304.81 K	–	6.58 ± 0.13
314.76 K	–	10.54 ± 0.21
324.92 K	–	16.71 ± 0.34
334.92 K	–	25.52 ± 0.51
344.89 K	–	37.55 ± 0.75
354.92 K	–	54.11 ± 1.1
